# Literature values in publication PMC3971013 (Journal of natural products, 2013).
# Read-outs that look alike come from different tables or passages of the source. Non-standard residues stand in square brackets, D forms with d. Residues, ends and D or L forms follow the SMILES beside them. *: point of attachment. Octanoyl(2R-Me,7,8-dehydro) = C=CCCCC[C@@H](C)C(=O)*; Oct7ynoyl(2R-Me) = C#CCCCC[C@@H](C)C(=O)*; NMeF = CN[C@@H](Cc1ccccc1)C(=O)O; X4 = CC(=O)CCCC[C@@H](C)C(=O)*; Oct(7)enoyl = C=CCCCCCC(=O)*; Oct(7)ynoyl = C#CCCCCCC(=O)*; NMeV = CN[C@H](C(=O)O)C(C)C; Hept6ynoyl = C#CCCCCC(=O)*; NMeA = CN[C@@H](C)C(=O)O; X3 = C=CCCCCC(=O)*
# Tested on: Vero Cells
# [1] = previously reported LD50 values
Compound,LD50 Vero Cells [1],LD50 Vero Cells
"CC(=O)CCCC[C@@H](C)C(=O)N(C)[C@H](C(=O)N(C)[C@H](C(=O)N[C@H](C(=O)N(C)[C@@H](C)C(=O)N(C)[C@@H](Cc1ccccc1)C(N)=O)C(C)C)C(C)C)C(C)C [Almiramide A (7), Almiramide A] (X4-[NMeV][NMeV]V[NMeA][NMeF]-NH2)",113.1 µM,–
"C#CCCCC[C@@H](C)C(=O)N(C)[C@H](C(=O)N(C)[C@H](C(=O)N[C@H](C(=O)N(C)[C@@H](C)C(=O)N(C)[C@@H](Cc1ccccc1)C(N)=O)C(C)C)C(C)C)C(C)C [Almiramide B (8), Almiramide B] ({Oct7ynoyl(2R-Me)}-[NMeV][NMeV]V[NMeA][NMeF]-NH2)",52.3 µM,–
"C=CCCCC[C@@H](C)C(=O)N(C)[C@H](C(=O)N(C)[C@H](C(=O)N[C@H](C(=O)N(C)[C@@H](C)C(=O)N(C)[C@@H](Cc1ccccc1)C(N)=O)C(C)C)C(C)C)C(C)C [Almiramide C (9), Almiramide C] ({Octanoyl(2R-Me,7,8-dehydro)}-[NMeV][NMeV]V[NMeA][NMeF]-NH2)",–,33.1 µM
C#CCCCCC(=O)N(C)[C@H](C(=O)N(C)[C@H](C(=O)N(C)[C@H](C(=O)N(C)[C@@H](C)C(=O)N(C)[C@@H](Cc1ccccc1)C(=O)N(C)C)C(C)C)C(C)C)C(C)C [Compound 10] (Hept6ynoyl-[NMeV][NMeV][NMeV][NMeA][NMeF]-NMe2),–,155.7 µM
C=CCCCCC(=O)N(C)[C@H](C(=O)N(C)[C@H](C(=O)N(C)[C@H](C(=O)N(C)[C@@H](C)C(=O)N(C)[C@@H](Cc1ccccc1)C(=O)N(C)C)C(C)C)C(C)C)C(C)C [Compound 11] (X3-[NMeV][NMeV][NMeV][NMeA][NMeF]-NMe2),–,93.1 µM
C#CCCCCCC(=O)N(C)[C@H](C(=O)N(C)[C@H](C(=O)N(C)[C@H](C(=O)N(C)[C@@H](C)C(=O)N(C)[C@@H](Cc1ccccc1)C(=O)N(C)C)C(C)C)C(C)C)C(C)C [Compound 12] ({Oct(7)ynoyl}-[NMeV][NMeV][NMeV][NMeA][NMeF]-NMe2),159.4 µM,–
C=CCCCCCC(=O)N(C)[C@H](C(=O)N(C)[C@H](C(=O)N(C)[C@H](C(=O)N(C)[C@@H](C)C(=O)N(C)[C@@H](Cc1ccccc1)C(=O)N(C)C)C(C)C)C(C)C)C(C)C [Compound 13] ({Oct(7)enoyl}-[NMeV][NMeV][NMeV][NMeA][NMeF]-NMe2),–,23.8 µM
C#CCCCCC(=O)N(C)[C@H](C(=O)N(C)[C@H](C(=O)N(C)[C@H](C(=O)N(C)[C@@H](C)C(=O)N(C)[C@@H](Cc1ccccc1)C(=O)O)C(C)C)C(C)C)C(C)C [Compound 14] (Hept6ynoyl-[NMeV][NMeV][NMeV][NMeA][NMeF]-OH),281.1 µM,–
C=CCCCCC(=O)N(C)[C@H](C(=O)N(C)[C@H](C(=O)N(C)[C@H](C(=O)N(C)[C@@H](C)C(=O)N(C)[C@@H](Cc1ccccc1)C(=O)O)C(C)C)C(C)C)C(C)C [Compound 15] (X3-[NMeV][NMeV][NMeV][NMeA][NMeF]-OH),–,>70.0 µM
C#CCCCCCC(=O)N(C)[C@H](C(=O)N(C)[C@H](C(=O)N(C)[C@H](C(=O)N(C)[C@@H](C)C(=O)N(C)[C@@H](Cc1ccccc1)C(=O)O)C(C)C)C(C)C)C(C)C [Compound 16] ({Oct(7)ynoyl}-[NMeV][NMeV][NMeV][NMeA][NMeF]-OH),>68.9 µM,–
C=CCCCCCC(=O)N(C)[C@H](C(=O)N(C)[C@H](C(=O)N(C)[C@H](C(=O)N(C)[C@@H](C)C(=O)N(C)[C@@H](Cc1ccccc1)C(=O)O)C(C)C)C(C)C)C(C)C [Compound 17] ({Oct(7)enoyl}-[NMeV][NMeV][NMeV][NMeA][NMeF]-OH),–,192.4 µM
C#CCCCCC(=O)N(C)[C@H](C(=O)N(C)[C@H](C(=O)N(C)[C@H](C(=O)N(C)[C@@H](C)C(=O)N(C)[C@@H](Cc1ccccc1)C(=O)OC)C(C)C)C(C)C)C(C)C [Compound 18] (Hept6ynoyl-[NMeV][NMeV][NMeV][NMeA][NMeF]-OMe),41.4 µM,–
C=CCCCCC(=O)N(C)[C@H](C(=O)N(C)[C@H](C(=O)N(C)[C@H](C(=O)N(C)[C@@H](C)C(=O)N(C)[C@@H](Cc1ccccc1)C(=O)OC)C(C)C)C(C)C)C(C)C [Compound 19] (X3-[NMeV][NMeV][NMeV][NMeA][NMeF]-OMe),–,24.7 µM
C#CCCCCCC(=O)N(C)[C@H](C(=O)N(C)[C@H](C(=O)N(C)[C@H](C(=O)N(C)[C@@H](C)C(=O)N(C)[C@@H](Cc1ccccc1)C(=O)OC)C(C)C)C(C)C)C(C)C [Compound 20] ({Oct(7)ynoyl}-[NMeV][NMeV][NMeV][NMeA][NMeF]-OMe),27.0 µM,–
C=CCCCCCC(=O)N(C)[C@H](C(=O)N(C)[C@H](C(=O)N(C)[C@H](C(=O)N(C)[C@@H](C)C(=O)N(C)[C@@H](Cc1ccccc1)C(=O)OC)C(C)C)C(C)C)C(C)C [Compound 21] ({Oct(7)enoyl}-[NMeV][NMeV][NMeV][NMeA][NMeF]-OMe),–,18.8 µM
